The record followed here is patent US20120058894A1, “SYNERGISTIC COMBINATIONS WHICH ARE COMPATIBLE WITH CULTIVATED PLANTS AND WHICH COMPRISE HERBICIDES SELECTED FROM THE GROUP CONSISTING OF BENZOYLCYCLOHEXANEDIONES FOR USE IN RICE CROPS” (Bayer CropScience AG, priority 2007, published 2012).

Each structure is given as a SMILES string.

Assay type in all cases: in vivo
In data set [1] the test system is BRAPL (Brachiaria platyphylla). Briefly: Post-emergence weed action, greenhouse pot test. As for the experimental part:
(§1) Seeds or root pieces of harmful mono- and dicotyledonous plants are placed in sandy clay soil in pots, covered with earth and secured in a greenhouse under good growing conditions (temperature, air humidity, water supply). Approximately three weeks after sowing, the plants are treated at the 2- to 3-leaf stage with the herbicidal active substances or the combinations according to the invention. The combinations according to the invention formulated as wettable powders or as emulsion concentrates are sprayed, in spray application, on to the green plant parts in different dosages with a water application rate of 600 to 800 I/ha (corrected). Immediately up to a few days after application, the test receptacles accumulate water over the ground surface by up to 30 mm. With the water application (submerged application), on the other hand, the ground in the closed test receptacle is already covered with the paddy water up to 30 mm at the time of the application. The formulated active substances are here added directly to the paddy water. After an exposure time of the test plants in the greenhouse of an additional 3 to 4 weeks under optimum growing conditions, the effect of the preparations is evaluated visually in comparison with untreated controls. […] In this connection, actions of the combinations according to the invention which exceed the formal sum of the actions of the herbicides when applied individually are frequently observed. The values observed for the tests show, with suitable low dosages, an action of the combinations which lie above the expected values according to Colby.
(§2) When the combinations according to the invention are used, herbicidal actions on a harmful plant species which exceed the formal sum of the actions of the herbicides present when applied singly are frequently observed. Alternatively, it can in many cases be observed that a lower application rate for the herbicidal combination is needed in order to achieve, in comparison with the individual preparations, the same action with a harmful plant species. Such improvements in action or improvements in effectiveness or economies in application rate are a strong indication of a synergistic effect. If the observed activity values already exceed the formal sum of the values for the tests with individual applications, then they likewise exceed the expected value according to Colby, which is calculated according to the following formula and is likewise regarded as an indication of synergy (cf. S. R. Colby in Weeds, 15 (1967), pp. 20 to 22):
(§3) In this connection: • A, B=action of the component A or B in percent at a dosage of a or b grams ai/ha, • E=expected value in % at a dosage of a+b grams ai/ha.
(§4) The values observed for the test examples mentioned below are greater than (harmful plants) or lower than (cultivated plants) the expected values according to Colby.

For data set [2], the system named is SCPSS (Scirpus juncoides). Briefly: Post-emergence weed action, greenhouse pot test. How it is done:
as §1, §2, §3, §4

The next data set deals with ORYZA (Oryza sativa). Briefly: Post-emergence greenhouse test, damage to cultivated plant rice. To be noted: for Damage ORYZA: dosage 300 g a.i./ha. As for the experimental part:
as §1, §2, §3, §4

The subject of data set [3] is LEFCH (Leptochloa chinensis). Briefly: Post-emergence weed action, greenhouse pot test. How it is done: as §1, §2, §3, §4
Data set [4] relates to ECHCG (Echinochloa crus galli). Briefly: Post-emergence weed action, greenhouse pot test. The conditions noted are these: Table 4, post-emergence, dosage 100 g a.i./ha. How it is done:
as §1, §2, §3, §4

Data set [5] deals with CYPES (Cyperus serotinus). Briefly: Post-emergence weed action, greenhouse pot test. To be noted: Table 4, post-emergence, dosage 100 g a.i./ha. How it is done:
as §1, §2, §3, §4

The mark [6] stands for this setting: Table 2, post-emergence, dosage 12.5 g a.i./ha.
The mark [7] stands for this setting: Table 5, post-emergence, dosage 62.5 g a.i./ha.
Setting [8] is: Table 5, post-emergence, dosage 12.5 g a.i./ha.
The mark [9] stands for this setting: Table 3, post-emergence, dosage 6.25 g a.i./ha.
The mark [10] stands for this setting: Table 6, post-emergence, dosage 6.25 g a.i./ha.

For the molecule `CS(=O)(=O)c1ccc(C(=O)C2C(=O)CCCC2=O)c(Cl)c1COCC(F)(F)F` [Compound A1, tembotrione], the “Action/Damage BRAPL” value in data set [1] (setting [6]) was determined as 20%. Moreover, the “Action against SCPSS” value in data set [2] (Table 7, post-emergence, dosage 12.5 g a.i./ha) was determined as 40%; in data set [2] (Table 8, post-emergence, dosage 12.5 g a.i./ha), 40%; in data set [2] (Table 9, post-emergence, dosage 12.5 g a.i./ha), 40%; in data set [2] (Table 10, post-emergence, dosage 12.5 g a.i./ha) it was 40%. In the data set on ORYZA (Oryza sativa) (in vivo), the “Action/Damage ORYZA” value came to 10%.

As for `CS(=O)(=O)c1ccc(C(=O)C2C(=O)CCCC2=O)c(Cl)c1COCC1CCCO1` (stereo not shown) [Compound A2, tefuryltrione], in data set [1] (setting [7]), the “Action/Damage BRAPL” value was 25%. In addition, the “Action against SCPSS” value in data set [2] (Table 7, post-emergence, dosage 37.5 g a.i./ha) stood at 50%. Moreover, the “Action/Damage ORYZA” value in the data set with ORYZA (Oryza sativa) (setting [7]) turned out to be 10%.

Take `CS(=O)(=O)c1ccc(C(=O)C2C(=O)CCCC2=O)c(Cl)c1` [Compound B1, sulcotrione]: the “Action/Damage BRAPL” value in data set [1] (setting [6]) and in data set [1] (setting [8]) was 0% in each case. Moreover, the “Action/Damage ORYZA” value in the data set on ORYZA (Oryza sativa) (setting [6]) and in the data set on ORYZA (Oryza sativa) (setting [8]) was 5% throughout.

For the molecule `CCCCOC(=O)[C@@H](C)Oc1ccc(Oc2ccc(C#N)cc2F)cc1` [Compound B3, cyhalofop-butyl], in data set [1] (setting [9]), the “Action/Damage BRAPL” value was 0%. Besides, the “Action/Damage LEFCH” value in data set [3] (setting [10]) is 0%. The “Action/Damage ORYZA” value with ORYZA (Oryza sativa) (setting [9]) and with ORYZA (Oryza sativa) (setting [10]) was 0% in each case.

For `CS(=O)(=O)c1ccc(C(=O)C2=C(Sc3ccccc3)C3CCC(C3)C2=O)c(Cl)c1` (stereo not shown) [Compound B5, benzobicyclon], the “Action against SCPSS” value in data set [2] (Table 8, post-emergence, dosage 37.5 g a.i./ha) is on record as 60%.

Consider `Cc1ccc(S(=O)(=O)Oc2c(C(=O)c3ccc(Cl)cc3Cl)c(C)nn2C)cc1` [Compound B6, pyrazolynate], for which the “Action against SCPSS” value in data set [2] (Table 9, post-emergence, dosage 250 g a.i./ha) is listed as 30%.

On to `CC(C)(NC(=O)C(Br)C(C)(C)C)c1ccccc1` (stereo not shown) [Compound B7, bromobutide], for which the “Action against SCPSS” value in data set [2] (Table 10, post-emergence, dosage 125 g a.i./ha) was 70%.

With `CCOC(=O)C1=NOC(c2ccccc2)(c2ccccc2)C1` [Compound C1, isoxadifen-ethyl], the “Wirkung gegen ECHCG” value in data set [4] was determined as 0%. For the same molecule, the “Wirkung gegen CYPES” value in data set [5] was 0%. The “Wirkung gegen LEFCH” value in data set [3] (Table 4, post-emergence, dosage 100 g a.i./ha) is given as 0%. The “Damage ORYZA” value in the data set with ORYZA (Oryza sativa) (Table 11, post-emergence) turned out to be 0%; in the data set on ORYZA (Oryza sativa) (Table 12, post-emergence), 0%.
